Structures are written as SMILES. Values after ≈ are worked out from the molar mass of the structure shown. Structures can show the parent of a compound that is named as a salt.

The test system of data set [1] is Gardnerella vaginalis ATCC 14018 and other 11 clinical isolates. Nature of the data set: Activity against Gardnerella vaginalis, standard two fold dilution methods.
Procedure: The strains were grown on Casman medium (Difco) plus 5% (v/v) whole rabbit blood and 0.15 (v/v) lysed rabbit blood. Inoculum size: approximately 10^4 colony forming units per spot. Incubation in an anaerobic hood: 48 hours at 37° C.
Data set [2] relates to Trichomonas vaginalis strain TVL. Nature of the data set: Activity against Trichomonas vaginalis, two-fold tube dilution method. The following applies: Trichomonas vaginalis; 48 hours at 37° C.; read-out: MIC. It is filed as cell-based. The procedure: Trichomonas vaginalis (applicant's internal code TVL) was grown on Trichomonas Culture Medium Base (Merck) plus 10% heat treated horse serum. Inoculum: approximately 10^5 organisms/ml. Incubation: 48 hours at 37° C.

The next data set deals with yeasts. The following applies: cited from earlier work.
For data set [3], the system named is Candida albicans ATCC 10231. Nature of the data set: Activity against Candida strains, two-fold dilution method. It is filed as cell-based. The following applies: Candida albicans, ATCC10231, 20 h; comparative tests, antibacterial agents; read-out: M.I.C. The procedure: (§1) This set of experiments included also one strain each of two other Candida species, Candida tropicalis and Candida kruzei. The M.I.C. were determined by the two-fold dilution method in buffered (0.01 M phosphate buffer, pH 7.4) yeast nitrogen base medium (Difco) supplemented with 1.5 g/liter asparagine in microtiter trays. Inocula were approximately 10^4 colony forming units/ml. Incubation was for 20 h at 30° C. Purpuromycin was dissolved in DMSO and added to the cultures as above.

The test system of data set [4] is Candida albicans SKF 2270. The description is as above. The format is cell-based. As to conditions: Candida albicans, SKF2270, 20 h; comparative tests, antibacterial agents; read-out: M.I.C. The procedure: as §1
The test system of data set [5] is Candida albicans strain SKF 2270. As to the kind of experiment: Topical antifungal activity in ovariectomized rats (yeast vaginal infection). The following applies: twice daily for three days. The format is in vivo, rats (Charles River). The procedure: The effectiveness of the water soluble salts of purpuromycin in the topical treatment of yeast vaginal infection was also tested in ovariectomized rats (Charles River) treated subcutaneously with 4 mg of estradiol benzoate approximately two weeks after ovariectomy. Five days later they were inoculated intravaginally with approximately 5×10^6 colony forming units (CFU) of Candida albicans strain SKF 2270 in 25 microliters of Nutrient Broth (no.2, Oxoid) containing 15% (vol/vol) of glycerol. Topical intravaginal therapy was twice daily for three days, starting one day after infection, with 100 microliters of a water soluble salt of purpuromycin suspension in a mixture of 10:90 DMSO-polyethylene glycol 400, corresponding to 2 or 5 mg/rat/treatment. The day after the last treatment, vaginal smear samples (calibrated 10 microliter loops) were diluted and plated for viable organism counts on Sabouraud agar (Difco). Each group contained 10 animals.

Data set [6] in a line: Solubility and pH of solution. It is filed as physicochemical.
Data set [7] deals with Escherichia coli SKF 12140. As to the kind of experiment: In vitro activity, M.I.C., microbroth dilution. The format is cell-based. As to conditions: salts calculated as weight of purpuromycin; 37° C., 20 h. The procedure: (§2) MIC were determined by the microbroth dilution test. Bacteria were grown at 37° C., fungi at 30° C. Incubation was for 20 h, except for Propionibacterium acnes, Bacteroides fragilis, Neisseria gonorrhoeae, Haemophilus influenzae (48 h) and Trichophyton mentagrophytes (72h) Neisseria gonorrhoeae and Haemophilus influenzae were incubated in a CO2 -enriched (5%) atmosphere; Propionibacterium acnes and Bacteroides fragilis in an anaerobic hood. Media used were: Oxoid Iso-sensitest broth (Staphylococci, Enterococcus faecalis and Escherichia coli); Difco Todd-Hewitt broth (streptococci); Difco GC base broth with 1% BBL IsoVitaleX (Neisseria gonorrhoeae); Difco Brain-Heart Infusion broth with 1% Difco supplement C (Haemophilus influenzae); Difco Wilkins-Chalgren broth (Propionibacterium acnes and Bacteroides fragilis); Difco Yeast Nitrogen Base broth with 1.5 g/1 asparagine (Candida albicans); Difco Sabouraud-dextrose broth (Trichophyton mentagrophytes). Inocula were approximately 10^4 CFU/ml.

Data set [8] has as its system Enterococcus faecalis ATCC 7080. As to the kind of experiment: In vitro activity, M.I.C., microbroth dilution. The format is cell-based. As to conditions: Enterococcus faecalis, ATCC7080; salts calculated as weight of purpuromycin; 37° C., 20 h. The procedure:
as §2

For a further data set, the system named is Staph. haemolyticus L602. Nature of the data set: In vitro activity, M.I.C., microbroth dilution. The format is cell-based. The following applies: Staphylococcus haemolyticus, L602; salts calculated as weight of purpuromycin; 37° C., 20 h. The procedure:
as §2

Data set [9] concerns Bacteroides fragilis ATCC 23745. As to the kind of experiment: In vitro activity, M.I.C., microbroth dilution. It is filed as cell-based. The following applies: Bacteroides fragilis, ATCC23745; salts calculated as weight of purpuromycin; 37° C., 48 h, anaerobic hood. The procedure:
as §2

Data set [10] has as its system Trichophyton mentagrophytes SKF 17410. Nature of the data set: In vitro activity, M.I.C., microbroth dilution. It is filed as cell-based. The following applies: Trichophyton mentagrophytes, SKF17410; salts calculated as weight of purpuromycin; 30° C., 72 h. The procedure: as §2
The test system of data set [11] is Neisseria gonorrhoeae L 997. Nature of the data set: In vitro activity, M.I.C., microbroth dilution. As to conditions: Neisseria gonorrhoeae, L997; salts calculated as weight of purpuromycin; 37° C., 48 h, 5% CO2. It is filed as cell-based. The procedure: as §2
Data set [12] deals with Staph. epidermidis ATCC 12228. As to the kind of experiment: In vitro activity, M.I.C., microbroth dilution. It is filed as cell-based. The following applies: Staphylococcus epidermidis, ATCC12228; salts calculated as weight of purpuromycin; 37° C., 20 h. The procedure:
as §2

The subject of data set [13] is Haemophilus influenzae ATCC 19418. Nature of the data set: In vitro activity, M.I.C., microbroth dilution. The format is cell-based. As to conditions: salts calculated as weight of purpuromycin; 37° C., 48 h, 5% CO2. The procedure: as §2
The subject of the next data set is Strep. pyogenes L49. As to the kind of experiment: In vitro activity, M.I.C., microbroth dilution. The format is cell-based. The following applies: Streptococcus pyogenes, L49; salts calculated as weight of purpuromycin; 37° C., 20 h. The procedure:
as §2

A further data set has as its system Staph. aureus Tour L 165. As to the kind of experiment: In vitro activity, M.I.C., microbroth dilution. The format is cell-based. As to conditions: Staphylococcus aureus, TOURL165; salts calculated as weight of purpuromycin; 37° C., 20 h. The procedure: as §2
Data set [14] has as its system Propionibacterium acnes ATCC 6919. As to the kind of experiment: In vitro activity, M.I.C., microbroth dilution. The format is cell-based. As to conditions: Cutibacterium acnes, ATCC6919; salts calculated as weight of purpuromycin; 37° C., 48 h, anaerobic hood. The procedure:
as §2

The subject of data set [15] is Candida albicans SKF 2270. As to the kind of experiment: In vitro activity, M.I.C., microbroth dilution. The format is cell-based. The following applies: Candida albicans, SKF2270; salts calculated as weight of purpuromycin; 30° C., 20 h. The procedure:
as §2

Another data set deals with Strep. pneumoniae L44. As to the kind of experiment: In vitro activity, M.I.C., microbroth dilution. It is filed as cell-based. As to conditions: salts calculated as weight of purpuromycin; 37° C., 20 h. The procedure:
as §2

A further data set has as its system Gardnerella vaginalis. As to the kind of experiment: In vitro activity, M.I.C., agar dilution. The following applies: Gardnerella vaginalis; salts calculated as weight of purpuromycin; ATCC 14018 and 10 clinical isolates, all same M.I.C.; inoculum ca. 10^5 CFU, 48 h. The format is cell-based. The procedure:
**The assay was carried out on strain ATCC 14018 and 10 clinical isolates
Incubation was for 48 h in an anaerobic hood (37° C.); inoculum ca. 10^5 CFU.

Data set [16] concerns Trichomonas vaginalis TVL. Nature of the data set: In vitro activity, M.I.C., microtiter trays. The following applies: Trichomonas vaginalis; salts calculated as weight of purpuromycin; 48 h, anaerobic hood, 37° C. The format is cell-based. The procedure:
MIC were performed in flat-bottomed microtiter trays, with 0.2 ml per well. The medium was TYM modified basal medium (Merck) plus 10% horse serum (treated to inactivate complement). The inoculum was ca. 10^5 organisms/ml; incubation was for 48 h in an anaerobic hood (37° C.).The microtiter wells were read using an inverted light microscope. The MIC was taken as the lowest concentration at which no live (mobile) protozoa were seen.

A short description of a further data set: Stability. The format is physicochemical.
For data set [17] the following is noted: conjugate acid of the second basic group; cited from earlier work.
Data set [18] can be described thus: Biological activity (general statement). The following applies: formed by hydrolysis of the carbomethoxy group of purpuromycin.

Consider `Cc1ncc([N+](=O)[O-])n1CCO` [Metronidazole], for which the MIC in data set [1] (Gardnerella vaginalis, read-out: MIC on resistant strains) was > 32 µg/mL; in data set [2] it was 0.25 µg/mL (≈ 1.46 µM); in data set [3] it was > 128 µg/mL; in data set [4], > 128 µg/mL. The “Number of strains with MIC of 4 mcg/ml” value in data set [1] (MIC 4 mcg/ml, 12 strains tested) came to 1 strains. In addition, in [1] (MIC 8 mcg/ml, 12 strains tested), the “Number of strains with MIC of 8 mcg/ml” value was determined as 3 strains. In addition, in [1] (MIC 16 mcg/ml, 12 strains tested), the “Number of strains with MIC of 16 mcg/ml” value worked out at 4 strains. For the same compound, the “Number of strains with MIC of 128 mcg/ml” value in data set [1] (MIC 128 mcg/ml, 12 strains tested) came out at 3 strains. In addition, in the data set with yeasts, the activity against yeasts entry is “not active against yeasts”.
In the case of `COC(=O)c1cc2cc3c(c(O)c2c(=O)o1)OC1(Cc2c(O)c4c(c(O)c2O1)C(=O)C(OC)=CC4=O)CC3O` [Purpuromycin salt with L-lysine (1:1.5), Salt of purpuromycin with L-lysine], the “Mean log10 CFU/smear sample ± SD” value in data set [5] (2 mg/rat/treatment intravaginal, vehicle 3.87 ± 0.50, P < 0.01 vs group 1 controls) is 2.60 ± 0.49 log10 CFU/smear sample. For the same compound, the “numbers of viable yeasts cell/sample” value in data set [5] (topical intravaginal) is “significantly reduced numbers of viable yeasts cell/sample”. Also, the “pH value of a 0.5% (w/v) solution” value in [6] (distilled water) stood at 8.5. Besides, the “solubility in distilled water” value in [6] (room temperature, calculated as purpuromycin, listed as Example 2) is 7400 µg/mL. The M.I.C. in data set [7] was 32 mg/L; in data set [13], 0.13 mg/L; with Strep. pneumoniae L44, 0.13 mg/L. In addition, the MIC in [8] is 0.06 µg/mL; in the data set on Staph. haemolyticus L602 it was 0.06 µg/mL; in data set [9] it was 0.13 µg/mL; in data set [10], 1 µg/mL; in data set [11], 0.06 µg/mL; in data set [12], 0.06 µg/mL. The MIC was 0.06 µg/mL in the data set with Strep. pyogenes L49; 0.06 µg/mL in the data set on Staph. aureus Tour L 165; 0.06 µg/mL in data set [14]; 1 µg/mL in [15]; 16 µg/mL in the data set on Gardnerella vaginalis; 4 µg/mL in data set [16].
On to `COC(=O)c1cc2cc3c(c(O)c2c(=O)o1)OC1(Cc2c(O)c4c(c(O)c2O1)C(=O)C(OC)=CC4=O)CC3O` (stereo not shown) [arginine salt], for which the “stability (in words)” value in the data set “Stability” is given as “not sufficiently stable”.
Regarding `N=C(N)NCCC[C@H](N)C(=O)O` [arginine], the pK3 value entry in [17] is “higher than 13”.
`COC1=CC(=O)c2c(O)c3c(c(O)c2C1=O)OC1(C3)CC(O)c2cc3cc(C(=O)O)oc(=O)c3c(O)c2O1` (stereo not shown) [carboxylic acid derivative]: the “activity of degradation product” value in data set [18] was “almost inactive”.

The values above are taken from patent publication US5118705A, “Water soluble salts of purpuromycin and pharmaceutical formulations thereof” (Gruppo Lepetit S.p.A., priority 1990, dated 1992).
